Test results as given in patent US9765069B2, “Antimicrobial compounds” (OXFORD UNIVERSITY INNOVATION LIMITED, priority 2012, dated 2017).
≈ marks a conversion by molar mass, not a printed value. Like-named read-outs stand apart in the source and are kept apart here.

Legend:
[1] = tested on: human embryonic kidney 293 cells; test: in vitro toxicities against human embryonic kidney 293 cells; type: cell-based
Source text: (§1) These properties can be determined according to techniques that are well known in the art.

S4 = test: MIC determination (bacteria), strain S4; type: cell-based, S. aureus; conditions: Table 2, 2-fold broth dilution; for MIC: Staphylococcus aureus
Description: (§2) MIC determination (bacteria); MICs were determined based on Clinical and Laboratory Standards Institute (CLSI) methodology (Methods for dilution antimicrobial susceptibility tests for bacteria that grow aerobically; Approved Standard—seventh edition. 2006, M7-A7, CLSI, Wayne Pa.) by a 2-fold broth dilution technique in Mueller Hinton (pH7.4 Biorad). For S. pneumoniae, the medium was supplemented with 2.5% laked horse blood. For H. influenzae, the medium was haemophilus test medium (H.T.M.). Overnight cultures were diluted to obtain the final inoculum of 10^5 cfu/well. Incubation was 37° C. overnight in ambient air. The MIC was defined as the lowest concentration which inhibited all visual growth and expressed in μg/ml. For each bacterial species, all of the molecules were tested in the same experiment in order to give a head-to-head comparison.

P1 = test: MIC determination (bacteria), strain P1; type: cell-based, S. pneumoniae; conditions: Table 2, 2-fold broth dilution; for MIC: Streptococcus pneumoniae
Description: as §2

S1 = test: MIC determination (bacteria), strain S1; type: cell-based, S. aureus; conditions: Table 2, 2-fold broth dilution; for MIC: Staphylococcus aureus
Description: as §2

E2 = test: MIC determination (bacteria), strain E2; type: cell-based, enterococcus; conditions: Table 2, 2-fold broth dilution; for MIC: Enterococcus
Description: as §2

P9 = test: MIC determination (bacteria), strain P9; type: cell-based, S. pneumoniae; conditions: Table 2, 2-fold broth dilution; for MIC: Streptococcus pneumoniae
Description: as §2

P9B = test: MIC determination (bacteria), strain P9B; type: cell-based, S. pneumoniae; conditions: Table 2, 2-fold broth dilution; for MIC: Streptococcus pneumoniae
Description: as §2

[2] = aqueous solubility at pH 7.4; type: physicochemical; conditions: aqueous solubility at pH 7.4 (water with 2% DMSO)
Source text: as §1

[3] = tested on: S2 (S. aureus 2, MRSA in vivo); test: MIC determination (bacteria), strain S2; type: cell-based; conditions: Table 2, 2-fold broth dilution; for MIC: Staphylococcus aureus, MRSA
Description: as §2

H4 = test: MIC determination (bacteria), strain H4; type: cell-based, H. influenzae; conditions: Table 2 and its footnote f, haemophilus test medium; for MIC: Haemophilus influenzae
Description: as §2

[4] = tested on: human peripheral blood cells; test: in vitro toxicities human peripheral blood cells; type: cell-based
Source text: as §1

H3 = test: MIC determination (bacteria), strain H3; type: cell-based, H. influenzae; conditions: Table 2, haemophilus test medium; for MIC: Haemophilus influenzae
Description: as §2

S26 = test: MIC determination (bacteria), strain S26; type: cell-based, S. aureus; conditions: Table 2, 2-fold broth dilution; for MIC: Staphylococcus aureus
Description: as §2

[5] = tested on: Hek293 / PMBC versus S. aureus 2, MRSA in vivo; test: Selectivity index (LD50 Hek293/PMBC divided by MIC S. aureus 2); type: cell-based; conditions: lower LD50 of Hek293 and PMBC (converted to μg/mL) divided by MIC against S. aureus 2, MRSA in vivo
E. Coli RNAP = E. Coli RNAP (Escherichia coli, UniProt P0A8T7+P0A8V2); test: In vitro activity against E. Coli RNAP; type: biochemical
Source text: as §1

E1 = test: MIC determination (bacteria), strain E1; type: cell-based, enterococcus; conditions: Table 2, 2-fold broth dilution
Description: as §2

[6] = tested on: mammalian_red blood cell membrane; test: In vitro mammalian red blood cell membrane lysis activity; type: cell-based; conditions: Active or inactive at 100 μM
Source text: as §1

S. aureus membrane = test: In vitro activity in depolarization of S. aureus membrane; type: cell-based; conditions: read-out: DEP (IC50)
Source text: as §1

all strains = test: MIC determination (bacteria), whole strain panel of Table 2; type: cell-based
Description: as §2

[7] = human embryonic kidney 293 cells
[8] = read-out: MIC against the other strains
[9] = all strains (S1, S26, S4, S2, E1, E2, P1, P9, P9B, H3, H4), read-out: MIC for all strains

Sequence of E. Coli RNAP (P0A8V2 whole entry): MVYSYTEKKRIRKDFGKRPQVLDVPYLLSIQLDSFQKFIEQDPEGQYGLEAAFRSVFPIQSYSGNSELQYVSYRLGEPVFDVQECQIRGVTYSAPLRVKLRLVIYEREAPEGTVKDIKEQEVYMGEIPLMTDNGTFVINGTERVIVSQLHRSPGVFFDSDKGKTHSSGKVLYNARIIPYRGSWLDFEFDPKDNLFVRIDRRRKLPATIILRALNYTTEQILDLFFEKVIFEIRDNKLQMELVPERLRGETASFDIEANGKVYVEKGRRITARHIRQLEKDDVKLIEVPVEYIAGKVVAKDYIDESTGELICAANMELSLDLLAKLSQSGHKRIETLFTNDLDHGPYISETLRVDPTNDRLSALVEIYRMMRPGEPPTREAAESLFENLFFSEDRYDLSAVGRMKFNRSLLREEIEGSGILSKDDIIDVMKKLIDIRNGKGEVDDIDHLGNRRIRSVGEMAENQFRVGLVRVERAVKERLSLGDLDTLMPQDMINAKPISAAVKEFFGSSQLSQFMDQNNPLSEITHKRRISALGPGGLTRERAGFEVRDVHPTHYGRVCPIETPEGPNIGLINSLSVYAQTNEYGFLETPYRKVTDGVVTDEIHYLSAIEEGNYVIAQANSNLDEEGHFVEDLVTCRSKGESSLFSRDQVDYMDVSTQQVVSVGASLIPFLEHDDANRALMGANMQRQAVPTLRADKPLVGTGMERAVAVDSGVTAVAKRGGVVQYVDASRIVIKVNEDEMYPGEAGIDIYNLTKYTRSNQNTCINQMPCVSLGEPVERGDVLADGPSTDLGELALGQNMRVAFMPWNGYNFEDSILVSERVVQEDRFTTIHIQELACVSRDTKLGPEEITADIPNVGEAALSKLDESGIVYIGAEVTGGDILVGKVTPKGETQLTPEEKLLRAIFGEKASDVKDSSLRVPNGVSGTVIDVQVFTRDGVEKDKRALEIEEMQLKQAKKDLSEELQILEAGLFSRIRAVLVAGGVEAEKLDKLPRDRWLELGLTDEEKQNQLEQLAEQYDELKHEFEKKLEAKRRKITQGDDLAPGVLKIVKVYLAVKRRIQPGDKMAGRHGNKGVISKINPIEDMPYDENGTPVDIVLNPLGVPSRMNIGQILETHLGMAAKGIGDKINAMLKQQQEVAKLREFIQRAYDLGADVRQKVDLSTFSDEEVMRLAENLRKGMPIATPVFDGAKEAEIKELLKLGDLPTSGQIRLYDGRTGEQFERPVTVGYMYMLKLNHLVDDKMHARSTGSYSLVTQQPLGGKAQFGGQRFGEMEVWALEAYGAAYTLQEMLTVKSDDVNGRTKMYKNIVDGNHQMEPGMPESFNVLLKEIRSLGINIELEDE
Sequence of E. Coli RNAP (P0A8T7 whole entry): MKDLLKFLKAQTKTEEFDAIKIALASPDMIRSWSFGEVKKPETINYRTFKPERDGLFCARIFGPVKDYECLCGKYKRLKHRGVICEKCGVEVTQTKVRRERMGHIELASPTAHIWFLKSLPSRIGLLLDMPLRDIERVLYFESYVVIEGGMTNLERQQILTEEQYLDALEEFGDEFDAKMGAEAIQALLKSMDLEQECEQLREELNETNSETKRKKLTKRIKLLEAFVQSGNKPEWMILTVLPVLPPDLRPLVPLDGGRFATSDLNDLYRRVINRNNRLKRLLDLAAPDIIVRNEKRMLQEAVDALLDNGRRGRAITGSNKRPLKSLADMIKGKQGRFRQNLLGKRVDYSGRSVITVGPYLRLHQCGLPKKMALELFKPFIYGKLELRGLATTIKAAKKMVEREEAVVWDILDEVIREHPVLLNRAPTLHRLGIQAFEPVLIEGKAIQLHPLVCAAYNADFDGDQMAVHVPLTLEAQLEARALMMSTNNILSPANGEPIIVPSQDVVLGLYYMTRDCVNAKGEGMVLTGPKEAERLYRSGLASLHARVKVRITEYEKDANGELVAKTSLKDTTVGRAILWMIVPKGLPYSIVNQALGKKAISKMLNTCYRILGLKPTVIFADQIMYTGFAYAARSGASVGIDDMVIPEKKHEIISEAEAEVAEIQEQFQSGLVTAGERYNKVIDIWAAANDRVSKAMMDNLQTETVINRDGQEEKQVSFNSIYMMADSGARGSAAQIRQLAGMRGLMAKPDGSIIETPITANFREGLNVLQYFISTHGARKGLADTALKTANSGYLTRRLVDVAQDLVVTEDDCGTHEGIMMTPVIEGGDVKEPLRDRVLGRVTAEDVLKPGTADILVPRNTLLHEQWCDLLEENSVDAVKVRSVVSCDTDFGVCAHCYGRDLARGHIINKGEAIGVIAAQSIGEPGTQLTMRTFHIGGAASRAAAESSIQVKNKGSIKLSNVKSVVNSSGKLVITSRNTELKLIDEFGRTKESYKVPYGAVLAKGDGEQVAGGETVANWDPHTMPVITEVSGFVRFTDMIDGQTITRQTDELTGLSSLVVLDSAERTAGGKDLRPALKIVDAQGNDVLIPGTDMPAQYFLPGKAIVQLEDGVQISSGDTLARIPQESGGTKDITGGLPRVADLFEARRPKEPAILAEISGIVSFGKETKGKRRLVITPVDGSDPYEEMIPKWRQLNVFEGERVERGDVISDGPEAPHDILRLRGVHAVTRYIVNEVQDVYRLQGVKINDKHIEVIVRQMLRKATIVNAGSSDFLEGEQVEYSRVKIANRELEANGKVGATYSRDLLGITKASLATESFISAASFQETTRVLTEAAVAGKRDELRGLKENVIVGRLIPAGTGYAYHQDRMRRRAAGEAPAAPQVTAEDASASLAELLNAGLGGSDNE
Sequence of E. Coli RNAP (P0A7Z4 whole entry partner): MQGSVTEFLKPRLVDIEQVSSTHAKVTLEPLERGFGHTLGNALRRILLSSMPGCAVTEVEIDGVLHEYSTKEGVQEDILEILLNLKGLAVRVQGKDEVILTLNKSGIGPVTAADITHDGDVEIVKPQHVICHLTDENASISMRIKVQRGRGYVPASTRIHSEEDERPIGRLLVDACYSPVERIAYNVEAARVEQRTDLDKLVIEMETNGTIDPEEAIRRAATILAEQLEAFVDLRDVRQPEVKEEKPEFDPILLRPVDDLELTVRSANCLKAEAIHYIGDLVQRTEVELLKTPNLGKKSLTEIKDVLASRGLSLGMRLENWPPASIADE
Sequence of E. Coli RNAP (P0A800 whole entry partner): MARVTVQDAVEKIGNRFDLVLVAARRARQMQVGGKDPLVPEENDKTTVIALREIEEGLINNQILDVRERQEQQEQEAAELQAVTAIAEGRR

Compound	SOL [2] [µM]	MIC (H4) [µg/mL]	Hek293 (LD50, μM) [1, 7] [µM]	MIC S4 (S4) [µg/mL]	MIC P1 (P1) [µg/mL]	MIC S1 (S1) [µg/mL]	IC50 (E. Coli RNAP) [µM]	MIC E2 (E2) [µg/mL]	MIC P9 (P9) [µg/mL]	MIC P9B (P9B) [µg/mL]	MIC E1 (E1) [µg/mL]	MIC S2 [3] [µg/mL]	MIC H4 (H4) [µg/mL]	PMBC (LD50, μM) ([4]; human peripheral blood cells) [µM]	IC50 (S. aureus membrane) [µM]	MIC H3 (H3) [µg/mL]	MIC S26 (S26) [µg/mL]	RBC membrane lysis activity (active/inactive) [6]	also measured
Cc1cc(Cl)ccc1OCCC/C(O)=C1\C(=O)CCN(C(=O)c2ccccc2)C1=O [19d]	>300	8 (≈ 18.7 µM)																	Hek293 (LD50, μM) ([1]; human): 90.9 µM; MIC (S4): 4 µg/mL (≈ 9.35 µM); MIC (P1): 2 µg/mL (≈ 4.67 µM); MIC (S1): 2 µg/mL (≈ 4.67 µM); MIC (E2): 4 µg/mL (≈ 9.35 µM); MIC (P9): 1 µg/mL (≈ 2.34 µM); MIC (P9B): 4 µg/mL (≈ 9.35 µM); MIC [3]: 4 µg/mL (≈ 9.35 µM); PMBC (LD50, μM) ([4]; human): 90.9 µM; MIC (H3): 16 µg/mL (≈ 37.4 µM); MIC (S26): 4 µg/mL (≈ 9.35 µM); SI (Selectivity index) [5]: 9.7
CCCCCCC(=O)N1CC(=O)C(=C(O)CC23CC4CC(CC(C4)C2)C3)C1=O [27i]	67 to 200		10.1	0.25 (≈ 0.645 µM)	0.12 (≈ 0.31 µM)	0.25 (≈ 0.645 µM)	3.1	0.25 (≈ 0.645 µM)	0.12 (≈ 0.31 µM)	1 (≈ 2.58 µM)	0.12 (≈ 0.31 µM)	0.25 (≈ 0.645 µM)	1 (≈ 2.58 µM)	30.3	> 100	2 (≈ 5.16 µM)	0.5 (≈ 1.29 µM)		RBCL (IC50, μM) [6]: Active
CCCC(=O)N1CC(=O)C(=C(O)CC23CC4CC(C)(CC(C)(C4)C2)C3)C1=O [27k]	>300		30.3	2 (≈ 5.35 µM)	1 (≈ 2.68 µM)	2 (≈ 5.35 µM)	6.7	1 (≈ 2.68 µM)	0.5 (≈ 1.34 µM)	1 (≈ 2.68 µM)	0.5 (≈ 1.34 µM)	2 (≈ 5.35 µM)	4 (≈ 10.7 µM)	90.9	> 100	8 (≈ 21.4 µM)	2 (≈ 5.35 µM)	Active	
CCC/C=C/C(=O)N1CC(=O)/C(=C(/O)CC2C[C@@H](C(C)=O)C2(C)C)C1=O (stereo partly drawn) [27q]		32 (≈ 88.5 µM)																	MIC (all strains; [8]): > 32 µg/mL
CCCC(=O)N1CC(=O)/C(=C(/O)CCNS(=O)(=O)c2ccccc2)C1=O [28j]																			MIC (all strains; [9]): > 32 µg/mL
CC12CC3CC(C)(C1)CC(C/C(O)=C1\C(=O)[C@@H]4CCCC(=O)N4C1=O)(C3)C2 [29a]		16 (≈ 43.1 µM)					> 100												MIC (all strains; [8]): > 32 µg/mL
CCCCCCC/C=C/C(=O)N1C(=O)/C(=C(\O)C[C@@H]2OC(C)(C)OC2=O)C(=O)C1CC(C)C (stereo partly drawn) [30c]							85												MIC (all strains; [9]): > 32 µg/mL
CSCCC1C(=O)C(=C(O)CC23CC4CC(C)(CC(C)(C4)C2)C3)C(=O)N1C(C)=O (stereo not drawn) [31e]	>300		30.3	4 (≈ 9.53 µM)	2 (≈ 4.77 µM)	2 (≈ 4.77 µM)	11	4 (≈ 9.53 µM)	2 (≈ 4.77 µM)	4 (≈ 9.53 µM)	4 (≈ 9.53 µM)	4 (≈ 9.53 µM)	4 (≈ 9.53 µM)	90.9	91.4	32 (≈ 76.3 µM)	1 (≈ 2.38 µM)	Active	
CSCCC1C(=O)C(=C(O)CC23CC4CC(CC(C4)C2)C3)C(=O)N1C(=O)C1CCCCC1 (stereo not drawn) [31f]	>300		90.9	0.5 (≈ 1.09 µM)	1 (≈ 2.18 µM)	0.5 (≈ 1.09 µM)	40	1 (≈ 2.18 µM)	0.5 (≈ 1.09 µM)	2 (≈ 4.35 µM)	0.5 (≈ 1.09 µM)	2 (≈ 4.35 µM)	2 (≈ 4.35 µM)	>90.9	> 100	32 (≈ 69.6 µM)	1 (≈ 2.18 µM)	Inactive^d	
CSCCC1C(=O)/C(=C(/O)CC2CC3CCC2C3)C(=O)N1C(=O)CC(C)CC(C)(C)C (stereo not drawn) [31g]	>300	2 (≈ 4.45 µM)					> 100											Active	Hek293 (LD50, μM) ([1]; human): 10.1 µM; MIC (S4): 0.5 µg/mL (≈ 1.11 µM); MIC (P1): 0.5 µg/mL (≈ 1.11 µM); MIC (S1): 0.12 µg/mL (≈ 0.267 µM); MIC (E2): 0.25 µg/mL (≈ 0.556 µM); MIC (P9): 0.25 µg/mL (≈ 0.556 µM); MIC (P9B): 2 µg/mL (≈ 4.45 µM); MIC [3]: 0.5 µg/mL (≈ 1.11 µM); PMBC (LD50, μM) ([4]; human): 30.3 µM; IC50 (S. aureus membrane; Staphylococcus aureus): > 100 µM; MIC (H3): 32 µg/mL (≈ 71.2 µM); MIC (S26): 0.5 µg/mL (≈ 1.11 µM); SI (Selectivity index) [5]: <9.1
CSCCC1C(=O)/C(=C(/O)C[C@@H]2OC(C)(C)OC2=O)C(=O)N1C(=O)CC(C)CC(C)(C)C (stereo partly drawn) [31h]																			MIC (all strains; [9]): > 32 µg/mL
CSCCC1C(=O)/C(=C(/O)CCCOc2ccc(Cl)cc2C)C(=O)N1C(=O)CC(C)CC(C)(C)C (stereo not drawn) [31j]	>300	8 (≈ 15.3 µM)					91											Active	Hek293 (LD50, μM) ([1]; human): 10.1 µM; MIC (S4): 1 µg/mL (≈ 1.91 µM); MIC (P1): 0.5 µg/mL (≈ 0.954 µM); MIC (S1): 0.5 µg/mL (≈ 0.954 µM); MIC (E2): 0.25 µg/mL (≈ 0.477 µM); MIC (P9): 0.25 µg/mL (≈ 0.477 µM); MIC (P9B): 8 µg/mL (≈ 15.3 µM); MIC (E1; Enterococcus): 1 µg/mL (≈ 1.91 µM); MIC [3]: 0.5 µg/mL (≈ 0.954 µM); PMBC (LD50, μM) ([4]; human): 30.3 µM; IC50 (S. aureus membrane; Staphylococcus aureus): > 100 µM; MIC (H3): > 64 µg/mL; MIC (S26): 1 µg/mL (≈ 1.91 µM); SI (Selectivity index) [5]: <11
